17 compounds from patent US9872493B2, “Method for promoting plant growth” (SUMITOMO CHEMICAL COMPANY, LIMITED, priority 2012, dated 2018) can be followed below.

The subject of assay [1] is Rice (Variety: Nipponbare). In words: Test for evaluating promotion of root growth by hydroponics of rice (Test Examples 1-3). Type of assay: in vivo. The procedure: Rice (Variety: Nipponbare)
(§1) A DMSO solution, which contained one of the compounds 14, 18, 21, 23, 26, 28, 29, 30, 35, 36, 37, 39 and 40 of the present invention at a concentration of 100,000 ppm, was added to Hoagland hydroponic solution (Hoagland and Arnon, California Agricultural Experiment Station 1950 Circular 347 pp. 34) of ¼-fold concentration at a volume ratio of 1/10,000. In this manner, hydroponic solutions containing one of the compounds 14, 18, 21, 23, 26, 28, 29, 30, 35, 36, 37, 39 and 40 of the present invention at 10 ppm were prepared respectively. As an untreated control plot, a hydroponic solution obtained by adding DMSO to Hoagland hydroponic solution of ¼-fold concentration at a volume ratio of 1/10,000 was used.
Rice seeds were soaked in a 1% aqueous sodium hypochlorite solution for 10 minutes, then soaked in a 70% ethanol solution for surface sterilization, and then washed with distilled water. The sterilized seeds were soaked in a hydroponic solution containing the test compound described above at 10 ppm and incubated in a dark place for 3 days at 28° C. to perform treatment for hastening germination.
Thereafter, 30 ml of hydroponic solution containing the test compound at 10 ppm was dispensed in a plastic tube (diameter of 20 mm×height of 113 mm) of which the side was covered with cardboard to block light. A float prepared using a styrene board and vinyl mesh was floated, and the rice seeds that had undergone the treatment for hastening germination were placed on the float on the surface of the hydroponic solution. The seeds were cultivated for 3 days at 26° C., an illuminance of 4,000 lux of the top surface of the tube, a humidity of 50%, and a day length of 16 hours.
The nursery plants of rice obtained after cultivating were measured in terms of the length of seminal root by using WinRHIZO system (manufactured by Regent Instruments Inc). For each test plot, an average of the measured values of the seminal root of 4 or 5 individuals were determined.
as §1, with “compounds 7, 8, 9, 10, 12, 17, 20,” for “compounds 14, 18,”, “21, 25, 27,” for “21, 23, 26,”, “30, 34,” for “30,”, “37, 38,” for “37,”, “of 10,000” for “of 100,000”, “at 1” for “at 10”
Rice seeds were soaked in a 1% aqueous sodium hypochlorite solution for 10 minutes, then soaked in a 70% ethanol solution for surface sterilization, and then washed with distilled water. The sterilized seeds were soaked in a hydroponic solution containing the test compound described above at 1 ppm and incubated in a dark place for 3 days at 28° C. to perform treatment for hastening germination.
Thereafter, 30 ml of hydroponic solution containing the test compound at 1 ppm was dispensed in a plastic tube (diameter of 20 mm×height of 113 mm) of which the side was covered with cardboard to block light. A float prepared using a styrene board and vinyl mesh was floated, and the rice seeds that had undergone the treatment for hastening germination were placed on the float on the surface of the hydroponic solution. The seeds were cultivated for 3 days at 26° C., an illuminance of 4,000 lux of the top surface of the tube, a humidity of 50%, and a day length of 16 hours.
The nursery plants of rice obtained after cultivation were measured in terms of the length of seminal root by using WinRHIZO system (manufactured by Regent Instruments Inc). […]

Assay [2] deals with Nicotiana benthamiana. Briefly: Test for evaluating growth promotion under low-temperature stress by hydroponics of Nicotiana benthamiana (Test Examples 4-6). It counts as in vivo. As to conditions: read-out: value of a relative leaf area (equation (1)); for relative green leaf area after low-temperature stress at 0.1 ppm: compound at 0.1 ppm; for relative green leaf area after low-temperature stress at 10 ppm: compound at 10 ppm. The procedure:
A DMSO solution, which contained one of the compounds 5, 14, 22, 23, 24, 25, 26, 28, 30, 31, 32, 33, 34, 35, 38, 39 and 40 of the present invention at a concentration of 10,000 ppm, was prepared. The DMSO solution of the compound of the present invention was added at a volume ratio of 1/1,000 to the Murashige•Scoog medium of a ½-fold concentration (a medium containing 2.3 g of mixed salts (manufactured by Wako Pure Chemical Industries, Ltd.), 200 mg of Myo-inositol (manufactured by Sigma-Aldrich Co. LLC.), 2 mg of nicotinic acid (manufactured by Wako Pure Chemical Industries, Ltd.), 2 mg of pyridoxine hydrochloride (manufactured by Wako Pure Chemical Industries, Ltd.), 20 mg of thiamine hydrochloride (manufactured by Wako Pure Chemical Industries, Ltd.), 20 g of sucrose (manufactured by Wako Pure Chemical Industries, Ltd.), and 1 g of MES (manufactured by DOJINDO LABORATORIES) per 1 L of water and having pH adjusted to 5.8), thereby preparing a medium containing the compound of the present invention at a concentration of 10 ppm.
Seeds of Nicotiana benthamiana were seeded in the 5 μL of the medium and cultured overnight at 22° C. Thereafter, 45 μL of the medium containing the compound of the present invention at a concentration of 10 ppm was added thereto, and the seeds are cultivated for 7 days at 22° C., an illuminance of 4,000 lux, and a day length of 16 hours, thereby the nursery plants raised from the Nicotiana benthamiana were treated with the compound.
Moreover, instead of the above medium a test plot, which was obtained by performing the same treatment by using a medium prepared by adding DMSO to the Murashige•Scoog medium of ½-fold concentration at a volume ratio of 1/1,000, was used as a control plot not treated with the compound.
The nursery plants of the Nicotiana benthamiana treated with the compound were subjected to low-temperature treatment by being cultivated for 7 days at 1.5±1.0° C., an illuminance of 2,000 lux, and a day length of 16 hours.
The nursery plants of the Nicotiana benthamiana having undergone the low-temperature stress treatment were cultivated for 3 days at 22° C., an illuminance of 4,000 lux, and a day length of 16 hours. Thereafter, the area of green leaf was quantified by Scanalyzer HTS (manufactured by LemnaTec GmbH). Moreover, the value of the control plot not treated with the compound that had not yet been subjected to the low-temperature stress treatment was measured in the same manner. A value of a relative leaf area was calculated based on the following equation (1), and if the value of a relative leaf area was 5 or greater, the compound was evaluated to have a mitigating effect. As a result of the evaluation, it was confirmed that when the plant was treated with one of the compounds 5, 14, 22, 23, 24, 25, 26, 28, 30, 31, 32, 33, 34, 35, 38, 39 and 40 of the present invention at 10 ppm, the value of a relative leaf area was 5 or greater, compared to the area of green leaf of the control plot not treated with compound. Accordingly, it was confirmed that the treatment using the compound of the present invention brings about a growth promotion effect. Relative leaf area=100*(a green area of a plot treated with the compound of the present invention−a green area of a control plot not treated with the compound of the present invention)/(a green area of a control plot not treated with the compound of the present invention that has not yet been subjected to low-temperature stress treatment−a green area of a control plot not treated with the compound of the present invention) Equation (1): […]
A DMSO solution, which contained one of the compounds 6, 7, 8, 11, 12, 15, 19, 23, 24, 25, 28, 30, 31, 33, 34, 36, 37, 38 and 39 of the present invention at a concentration of 1,000 ppm, was prepared. […]

Setting [3] is: 7 days at 1.5±1.0° C. low-temperature stress, then 3 days at 22° C., green leaf area vs untreated control.
Setting [4] is: compound at 1 ppm, 7 days at 1.5±1.0° C. low-temperature stress, then 3 days at 22° C., green leaf area vs untreated control.

Like-named read-outs stand apart in the source and are kept apart here. Where only a bound is given, the exact number is not on record here.

For `CCOC(=O)c1csc2cc(C(F)(F)F)ccc12` [Compound 29], the “length of seminal root compared with the untreated control plot (in words)” value in assay [1] (0.1 ppm), in assay [1] (1 ppm) and in assay [1] (10 ppm) was “obviously longer” in each case. Moreover, in assay [2] (setting [3]), the relative green leaf area after low-temperature stress at 0.1 ppm is no less than 5%.
For `O=C(Nc1ccccc1)c1csc2cc(C(F)(F)F)ccc12` [Compound 32], in assay [2] (setting [3]), the relative green leaf area after low-temperature stress at 0.1 ppm is no less than 5% and the relative green leaf area after low-temperature stress at 10 ppm is no less than 5%.
Regarding `CNC(=O)c1c(C(F)(F)F)sc2ccccc12` [Compound 24], in assay [2] (setting [4]), the relative green leaf area after low-temperature stress at 1 ppm is no less than 5%. In addition, the relative green leaf area after low-temperature stress at 10 ppm in assay [2] (setting [3]) was no less than 5%.
For the compound `O=C(O)c1csc2ccc(C(F)(F)F)cc12` [Compound 13, 5-trifluoromethylbenzo[b]thiophene-3-carboxylic acid], the “length of seminal root compared with the untreated control plot (in words)” value in assay [1] (0.1 ppm) is on record as “obviously longer”. Also, the relative green leaf area after low-temperature stress at 0.1 ppm in assay [2] (setting [3]) was no less than 5%.
Take `O=C(Nc1ccccc1)c1csc2c(C(F)(F)F)cccc12` [Compound 39]: the “length of seminal root compared with the untreated control plot (in words)” value in assay [1] (0.1 ppm), in assay [1] (1 ppm) and in assay [1] (10 ppm) was “obviously longer” throughout. For the same compound, the relative green leaf area after low-temperature stress at 1 ppm in assay [2] (setting [4]) is no less than 5%. Also, the relative green leaf area after low-temperature stress at 10 ppm in assay [2] (setting [3]) was no less than 5%.
For `COC(=O)c1c(C(F)(F)F)sc2c(C(=O)OC)cccc12` [Compound 18, dimethyl 2-trifluoromethylbenzo[b]thiophene-3,7-dicarboxylate], in assay [1] (10 ppm), the “length of seminal root compared with the untreated control plot (in words)” value is given as “obviously longer”.
For `NC(=O)c1csc2cc(C(F)(F)F)ccc12` [Compound 30], the “length of seminal root compared with the untreated control plot (in words)” value in assay [1] (0.1 ppm), in assay [1] (1 ppm) and in assay [1] (10 ppm) was “obviously longer” throughout. For the same compound, the relative green leaf area after low-temperature stress at 0.1 ppm in assay [2] (setting [3]) is no less than 5%. Further, the relative green leaf area after low-temperature stress at 1 ppm in assay [2] (setting [4]) was no less than 5%. For the same compound, the relative green leaf area after low-temperature stress at 10 ppm in assay [2] (setting [3]) was no less than 5%.
As for `CCOC(=O)c1c(C(F)(F)F)sc2ccccc12` [Compound 22], in assay [2] (setting [3]), the relative green leaf area after low-temperature stress at 0.1 ppm is no less than 5% and the relative green leaf area after low-temperature stress at 10 ppm is no less than 5%.
In the case of `COC(=O)c1cccc2ccsc12` [Compound 8, methyl benzo[b]thiophene-7-carboxylate], the “length of seminal root compared with the untreated control plot (in words)” value in assay [1] (1 ppm) is listed as “obviously longer”. Moreover, in assay [2] (setting [4]), the relative green leaf area after low-temperature stress at 1 ppm was no less than 5%.
Turning to `O=C(NCc1ccccc1)c1c(C(F)(F)F)sc2ccccc12` [Compound 26], in assay [1] (0.1 ppm), the “length of seminal root compared with the untreated control plot (in words)” value was “obviously longer”. Moreover, the “length of seminal root compared with the untreated control plot (in words)” value in assay [1] (10 ppm) is listed as “obviously longer”. Further, in assay [2] (setting [3]), the relative green leaf area after low-temperature stress at 0.1 ppm is no less than 5% and the relative green leaf area after low-temperature stress at 10 ppm is no less than 5%.
In the case of `O=C(NCc1ccccc1)c1csc2cc(C(F)(F)F)ccc12` [Compound 33], in assay [2] (setting [3]), the relative green leaf area after low-temperature stress at 0.1 ppm is no less than 5% and the relative green leaf area after low-temperature stress at 10 ppm was no less than 5%. In addition, the relative green leaf area after low-temperature stress at 1 ppm in assay [2] (setting [4]) is no less than 5%.
Regarding `COC(=O)c1cccc2sc(C(F)(F)F)cc12` [Compound 2, methyl 2-trifluoromethylbenzo[b]thiophene-4-carboxylate], in assay [2] (setting [3]), the relative green leaf area after low-temperature stress at 0.1 ppm was no less than 5%.
Regarding `NC(=O)c1c(C(F)(F)F)sc2ccccc12` [Compound 17, 2-trifluoromethylbenzo[b]thiophene-3-carboxamide], the “length of seminal root compared with the untreated control plot (in words)” value in assay [1] (1 ppm) was “obviously longer”.
As for `NC(=O)c1cccc2cc(C(F)(F)F)sc12` [Compound 11, 2-trifluoromethylbenzo[b]thiophene-7-carboxamide], the relative green leaf area after low-temperature stress at 1 ppm in assay [2] is no less than 5%.
On to `O=C(O)c1cccc2sc(C(F)(F)F)cc12` [Compound 1, 2-trifluoromethylbenzo[b]thiophene-4-carboxylic acid], for which the “length of seminal root compared with the untreated control plot (in words)” value in assay [1] (0.1 ppm) is listed as “obviously longer”.
`COC(=O)c1ccc2sccc2c1` [Compound 5, methyl benzo[b]thiophene-5-carboxylate]: in assay [2] (setting [3]), the relative green leaf area after low-temperature stress at 10 ppm is no less than 5%.
For `O=C(O)c1csc2cc(C(F)(F)F)ccc12` [Compound 27], the “length of seminal root compared with the untreated control plot (in words)” value in assay [1] (0.1 ppm) and in assay [1] (1 ppm) was “obviously longer” in each case.
